Source: paper PMC12491715 (Acta Pharmaceutica Sinica. B, 2025)
Values after ≈ are worked out from the molar mass of the structure shown.

Assays:
hAChE = hAChE (Homo sapiens, UniProt P22303); assay: ChE IC50 determination, method of Ellman, hAChE; assay type: biochemical
Experimental: The inhibitory potencies of the compounds against the ChEs were determined using the method of Ellman following the procedure described previously. Briefly, compound stock solutions in DMSO were incubated with Ellman’s reagent and ChEs (final concentrations: 370 μmol/L Ellman’s reagent, approximately 1 nmol/L or 50 pmol/L hBChE or hAChE, respectively) in 0.1 mol/L sodium phosphate pH 8.0 for 5 min at 20 °C. For time-dependency measurements, the pre-incubation time was varied (1, 5, 15, 30 or 60 min). The reactions were started by the addition of the substrate (final concentration, 500 μmol/L butyrylthiocholine iodide or acetylthiocholine iodide for hBChE and hAChE, respectively). The final content of DMSO was always 1%. The increase in absorbance at 412 nm was monitored for 2 min using a 96-well microplate reader (Synergy HT, BioTek Instruments, VT, USA). The initial velocities in the presence (vi) and absence (v0) of the test compounds were calculated. The inhibitory potencies were expressed as the residual activities, according to Eq. (1):(1) RA = vi / v0
For IC50 determinations, at least seven different concentrations for each compound were used. The IC50 values were obtained by plotting the residual ChE activities against the applied inhibitor concentrations, with the experimental data fitted to a four-parameter logistic function (GraphPad Prism 9.4). Tacrine and donepezil were used as positive controls.

Aqueous stability (UPLC) = assay type: physicochemical
Experimental: For the aqueous stability determination, UPLC analyses were performed as described under Chemistry–General Information. The method used a Waters Acquity UPLC® HSS C18 SB column (2.1 mm× 50 mm, 1.8 μm) thermostated at 40 °C, with: injection volume, 5 μL; flow rate, 0.4 mL/min; detector λ, 220 nm; mobile phase A: 0.1% TFA (v/v) in MilliQ water; mobile phase B: MeCN. Gradient: 0–5 min, 20%–100% B; 5–6 min, 20% B.
Compound stock solutions (100 mmol/L) were prepared in absolute EtOH, while the internal standard (caffeine) was dissolved in PBS (0.1 mg/mL). The aqueous stability solutions were prepared by mixing 1200 μL PBS with internal standard, 150 μL absolute EtOH, and 150 μL compound stock solution in a HPLC vial to give 10 mmol/L compound concentration in PBS/EtOH = 80:20, which was injected immediately and then at hourly intervals for 48 h. The analyte AUCs were normalized on internal standard AUCs and compared with the timepoint zero. For the rate calculation, pseudo-first order kinetics were assumed.
For investigation of compound 8 stability in an aqueous medium, its stock solution (10,000 mg/L) was prepared in EtOH. 15 μL of the stock solution was mixed with 60 μL of caffeine (2500 mg/L in EtOH) and 1425 μL of the respective aqueous solution/buffer to achieve final concentration of 100 mg/L with 5% ethanol content. The UPLC analysis was carried as described above.

Thermodynamic solubility = assay type: physicochemical; conditions: thermodynamic from solid
Experimental: The supernatants were diluted 1:5 with 50% MeCN or used directly for UPLC analysis (calibration curve was constructed from 0.5–100 mg/L standard solutions of compound 8).

[1] = test system: ICR mice icv-injected with Aβ1–42; assay: Morris water maze, mice model with icv-injection of Aβ1–42; assay type: in vivo; conditions: 1–5 mg/kg, ip, once a day; comparable to rivastigmine 4 (1 mg/kg, ip)
Experimental: Mice model with icv-injection of Aβ1–42 The experiments were performed using ICR male mice (8–10 weeks old, weight 18–20 g), which were purchased from Shanghai Bikai Animal Breeding Factory (Shanghai, China). Animals were housed in cages (6 mice per cage) at a constant temperature of 25±2 °C, humidity of 55%±10% and a light/dark (12:12) cycle. The mice had unlimited access to food and water prior to the experiment. Specified conditions for the maintenance of mice were ensured throughout the experiments, including tree bedding (Yizheng Anlimao Biotechnology Co., Ltd., China) and lab feed (Zimao, China). For behavioural tests, mice were selected randomly, each group consisted of 6 mice. The experiments were performed between 9 am and 3 pm.
According to the literature procedure, recombinant human hexafluoroisopropanol-pretreated Aβ1–42 from Merck Millipore (Darmstadt, Germany) was dissolved in 1% DMSO, diluted with saline to the final concentration of 2 mg/mL, and incubated for 72 h to form oligomers. […]
Behavioural assays The Morris water maze was placed in a lighted room at 25 °C, and it was divided into four equal quadrants. […] The time spent searching for the missing platform was recorded by Xeye Aba image processing system (Beijing Zhongshi Dichuang Technology Development Co., Ltd.) and analysed by GraphPad Prism 5.

GSK3β = assay: Western blot of APP/PS1 mice brain homogenates, GSK3β; assay type: in vivo, C57BL/6J-TgN(APP/PS1)ZLFILAS mice; conditions: 15-day treatment, 1 or 5 mg/kg ip

Sequence of hAChE (P22303 32-614): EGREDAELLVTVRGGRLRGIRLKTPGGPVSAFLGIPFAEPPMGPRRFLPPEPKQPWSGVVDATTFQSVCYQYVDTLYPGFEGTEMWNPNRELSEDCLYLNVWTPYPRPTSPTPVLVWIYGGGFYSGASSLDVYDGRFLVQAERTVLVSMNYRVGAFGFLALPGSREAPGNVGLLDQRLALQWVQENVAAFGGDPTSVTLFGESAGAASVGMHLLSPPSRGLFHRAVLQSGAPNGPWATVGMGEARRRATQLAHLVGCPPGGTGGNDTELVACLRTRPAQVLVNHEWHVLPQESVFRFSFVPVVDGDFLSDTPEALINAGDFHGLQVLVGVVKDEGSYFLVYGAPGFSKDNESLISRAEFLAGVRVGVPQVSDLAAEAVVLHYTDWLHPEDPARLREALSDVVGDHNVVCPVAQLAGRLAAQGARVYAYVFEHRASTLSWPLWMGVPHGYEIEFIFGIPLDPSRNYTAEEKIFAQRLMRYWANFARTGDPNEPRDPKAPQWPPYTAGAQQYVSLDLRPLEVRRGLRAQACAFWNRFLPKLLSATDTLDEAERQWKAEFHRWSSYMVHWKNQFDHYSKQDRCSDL

CCN(CC)C(=O)n1cnc(C2(CC)Cc3ccccc3C2)c1 [Compound 8, N,N-Diethyl-4-(2-ethylindan-2-yl)-1H-imidazole-1-carboxamide]
hAChE time-dependency observed: Yes/No (hAChE; pre-incubation time varied): No | remaining activity at 100 µM (hAChE; residual activity at 100 μmol/L, after 5 min preincubation, read-out: hAChE RA±SD (residual activity)): 62% | t1/2 in aqueous solution (Aqueous stability (UPLC); PBS:EtOH = 80:20, 10 mmol/L, during 48 h): stable | % left after 24 h (Aqueous stability (UPLC); PBS:EtOH = 95:5, 100 mg/L): 100.0% | % left after 24 h (Aqueous stability (UPLC); pH 2:EtOH = 95:5, 100 mg/L): 99.9% | % left after 24 h (Aqueous stability (UPLC); pH 4:EtOH = 95:5, 100 mg/L): 100.0% | % left after 24 h (Aqueous stability (UPLC); pH 6:EtOH = 95:5, 100 mg/L): 100.0% | % left after 24 h (Aqueous stability (UPLC); pH 10:EtOH = 95:5, 100 mg/L): 97.7% | solubility at 24 h (Thermodynamic solubility; 1% Tween 20 in water, aqueous with cosolvent or surfactant or cyclodextrin, 1% Tween 20/water): 615 ± 172 µg/mL (≈ 1970 µM) | solubility at 24 h (Thermodynamic solubility; PBS, aqueous buffer): 100 ± 20 µg/mL (≈ 321 µM) | solubility at 24 h (Thermodynamic solubility; pH 2 solution, pH 2, aqueous buffer): 2420 ± 108 µg/mL (≈ 7760 µM) | solubility at 24 h (Thermodynamic solubility; pH 4 solution, pH 4, aqueous buffer): 166 ± 12 µg/mL (≈ 533 µM) | solubility at 24 h (Thermodynamic solubility; pH 6 solution, pH 6, aqueous buffer): 136 ± 1 µg/mL (≈ 437 µM) | solubility at 24 h (Thermodynamic solubility; pH 10 solution, pH 10, aqueous buffer): 103 ± 17 µg/mL (≈ 331 µM) | solubility at 24 h (Thermodynamic solubility; water): 115 ± 26 µg/mL (≈ 369 µM) | performance in Morris water maze [1]: outperformed saline-treated mice (model) | phosphorylation of GSK3β in whole brain homogenates (GSK3β): increased phosphorylation of GSK3β
